Test results: patent publication US8680290B2, “Isoxazoline derivatives and their use as herbicides” (Syngenta Limited, priority 2004, dated 2014)

Assays:
[1] = test system: Monocotyledonous and dicotyledonous test plants; experiment: Example B1 herbicidal action, application post-emergence (Table B1a); assay type: in vivo; settings: 250 g/ha, evaluated after 3 weeks, scale 0-10
Protocol: Monocotyledonous and dicotyledonous test plants were sown in seed trays in standard soil. Immediately after sowing (pre-emergence) or after 8 to 9 days cultivation (post-emergence), the test compounds were applied by spraying in the form of an aqueous solution derived from the formulation of the technical active ingredient in 0.6 ml acetone and 45 ml formulation solution containing 10.6% Emulsogen EL (CAS RN 61791-12-6), 42.2% N-methylpyrrolidone, 42.2% dipropylene glycol monomethyl ether (CAS RN 34590-94-8) and 0.2% X-77 (CAS RN 11097-66-8). The test plants were then grown in a greenhouse under optimum conditions. After a test duration of 3 weeks (post-emergence) or 4 weeks (pre-emergence), the test was evaluated (10=total damage to plant, 0=no damage to plant).

[2] = test system: Monocotyledonous and dicotyledonous test plants; experiment: Example B1 herbicidal action, application pre-emergence (Table B1b); assay type: in vivo; settings: 250 g/ha, evaluated after 4 weeks
Procedure, shortened: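 Compounds sprayed as aqueous solution from acetone/Emulsogen EL/NMP/dipropylene glycol monomethyl ether/X-77 formulation onto soil right after sowing (pre-emergence) or onto 8–9-day plants (post-emergence); greenhouse-grown. Damage scored 0 (none) to 10 (total) after 4 weeks pre- or 3 weeks post-emergence.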

| SMILES | herbicidal damage rating, Abutilon [1] | herbicidal damage rating, Amaranthus [1] | herbicidal damage rating, Digitaria [1] | herbicidal damage rating, Panicum [1] | herbicidal damage rating, Setaria [1] | herbicidal damage rating, Sida [1] | herbicidal action (damage rating 0-10), Amaranthus [2] | herbicidal action (damage rating 0-10), Digitaria [2] | herbicidal action (damage rating 0-10), Panicum [2] | herbicidal action (damage rating 0-10), Setaria [2] | herbicidal action (damage rating 0-10), Sida [2] |
| --- | --- | --- | --- | --- | --- | --- | --- | --- | --- | --- | --- |
| CC1(C)CC(S(=O)(=O)C(F)(Br)c2c(F)cccc2F)=NO1 (stereo not shown) [Compound No. 1.63, 3-[bromo-(2,6-difluorophenyl)-fluoro-methanesulfonyl]-5,5-dimethyl-4,5-dihydroisoxazole] | 4 | 3 | 7 | 7 | 7 | 4 | 10 | 10 | 10 | 10 | 8 |
| CC1(C)CC(S(=O)(=O)C(F)(Cl)c2ccccc2)=NO1 (racemic) [1.75] | 5 | 3 | 8 | 5 | 5 | 4 | 10 | 10 | 10 | 10 | 7 |
| Cc1ccccc1C(F)S(=O)(=O)C1=NOC(C)(C)C1 (racemic) [1.93] | 3 | 7 | 7 | 8 | 3 | 2 | 8 | 10 | 10 | 10 | 6 |
| CC1(C)CC(S(=O)(=O)C(F)c2cccnc2Cl)=NO1 (stereo not shown) [8.02] | 2 | 0 | 6 | 3 | 3 | 3 | 7 | 9 | 10 | 8 | 0 |
| CC1(C)CC(S(=O)(=O)C(c2c(F)cccc2F)C(F)(F)F)=NO1 (stereo not shown) [Compound No. 1.113, 3-[1-(2,6-difluoro-phenyl)-2,2,2-trifluoro-ethanesulfonyl]-5,5-dimethyl-4,5-dihydroisoxazole] | 2 | 0 | 8 | 3 | 7 | 4 | 8 | 9 | 10 | 10 | 0 |
